Among the data in PubChem BioAssay (NCI) are GI50 and TGI values, retold here.

Assay in all cases: NCI-60 cell line screen, 48 h
In experiment [1] the test system is HCC-2998 colon.
Experiment [2] concerns SN12C renal.
Experiment [3] deals with UO-31 renal.
The subject of experiment [4] is SF-295 CNS.
Experiment [5] deals with HL-60(TB) leukemia.
Experiment [6] deals with LOX IMVI melanoma.
Experiment [7] concerns U251 CNS.
Experiment [8] concerns MDA-MB-435.
Experiment [9] concerns OVCAR-4 ovarian.
The test system of experiment [10] is HCT-116 colon.

“And” between values parts separate entries of the source, which are not always exact repeats. Equal values may be shown once.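 Where inhibition never reached the appropriate level, the endpoint shown equals the highest concentration tested. Otherwise, values were interpolated linearly from a five-concentration, 48-hour dose response in 96-well plates. At the GI50, growth is halved. The concentration for full growth arrest is given as TGI.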

`CCOC(=O)c1c(-c2ccc(OC)cc2)c(C#N)c2c(C#N)c(N)nn2c1N`: the GI50 in experiment [1] was 7.64 µM; in [2] it was 4 µM; in experiment [3], 3.49 µM; in [4] it was 2.98 µM; in experiment [5] it was 3.33 µM; in experiment [6] it was 4.81 µM. Besides, the GI50 in [7] was 4.19 µM; in experiment [8], 0.613 µM; in experiment [9] it was 6.11 µM; in experiment [10] it was 4.35 µM. For the same compound, the TGI in experiment [1] was above 100 µM; in experiment [2], 49 µM; in experiment [3], 90 µM; in experiment [4] it was 32.9 µM; in [5], above 100 µM; in experiment [6], above 100 µM. Also, the TGI in [7] amounted to 23.7 µM; in experiment [8] it was 2.89 µM; in experiment [9] it was 96.7 µM; in experiment [10], 19.4 µM.
Turning to `CCN(Cc1ccc(F)cc1)c1ccc(CO)c(Br)c1`, the GI50 in experiment [1] is 5.29 µM; in [2], 8.71 µM; in [3], 2.89 µM; in [4], 0.148 µM; in [5], 3.26 µM; in experiment [6] it was 11.6 µM. Moreover, the GI50 in experiment [7] was 0.171 µM; in experiment [8], 19.4 µM; in [9] it was 0.152 µM; in experiment [10], 0.046 µM. For the same compound, the TGI was 30.8 µM in experiment [1]; 23.9 µM in experiment [2]; above 40.3 µM in experiment [3]; 2.3 µM in [4]; 26.4 µM in experiment [5]; 26.1 µM in [6]. Also, the TGI in experiment [7] turned out to be 13 µM; in experiment [8], 49.6 µM; in experiment [9] it was 2.68 µM; in experiment [10] it was 12.6 µM.
`O=C1c2cccc3cccc(c23)C(=O)N1CCCCCN1CCN(CCCCCOc2ccc(-c3nc4ccc(N5CCOCC5)cc4[nH]3)cc2)CC1`: the GI50 in experiment [1] was 36.5 µM; in experiment [2], above 100 µM; in [3], 3.47 µM; in [4], 8.04 µM; in experiment [5] it was 0.372 µM; in [6] it was 3.01 µM. The GI50 is 5.47 µM in [7], 3.59 µM in experiment [8], 7.04 µM in experiment [9] and 5.06 µM in experiment [10]. Also, the TGI is above 91 µM in [1]; above 100 µM in experiment [2]; 34.7 µM in [3]; 25.4 µM in [4]; above 19.9 µM in experiment [5]; 7.97 µM in experiment [6]. Further, the TGI is 10.2 µM in [7], 13.2 µM in experiment [8], 28.3 µM in experiment [9] and above 100 µM in experiment [10].
Regarding `COc1ccc(-c2nsc3c2NC(=O)CC3c2cccc(OC)c2)cc1` (stereo unspecified), the GI50 in experiment [1] is 2.13 µM; in [2], 3.81 µM; in experiment [3], 3.1 µM; in experiment [4], 1.54 µM; in experiment [5] it was 1.35 µM; in experiment [6], 0.689 µM. Also, the GI50 in experiment [7] is 1.83 µM; in experiment [8] it was 0.282 µM; in [9], 7.4 µM; in experiment [10] it was 0.531 µM. In addition, the TGI in [1] is above 100 µM; in experiment [2] it was above 100 µM; in [3], above 100 µM; in experiment [4], 12.4 µM; in [5], 17.4 µM; in experiment [6] it was above 100 µM. Besides, the TGI in [7] was above 100 µM; in [8], 0.868 µM; in experiment [9] it was above 100 µM; in experiment [10] it was above 100 µM.
Turning to `CSc1nc(NC2OC(COC(C)=O)C(OC(C)=O)C(OC(C)=O)C2OC(C)=O)c(N=CC=Nc2c(NC3OC(COC(C)=O)C(OC(C)=O)C(OC(C)=O)C3OC(C)=O)nc(SC)n(C)c2=O)c(=O)n1C` (stereo unspecified), the GI50 in experiment [1], in [2], in experiment [3], in [4], in [5] and in experiment [6] was above 50 µM each time. Moreover, the GI50 in [7] was 20.6 µM; in experiment [8], above 50 µM; in [9], above 50 µM; in experiment [10], above 50 µM. Also, the TGI in [1] was above 100 µM; in experiment [2] it was above 100 µM; in experiment [3], above 100 µM; in experiment [4], > 50 µM and 98.8 µM; in [5], above 100 µM; in [6], above 100 µM. Also, the TGI is 50 µM and > 100 µM in [7]; above 100 µM in experiment [8]; above 100 µM in [9]; above 100 µM in [10].
For the compound `Nc1ccn(C2OC(CO)C(O)C2O)c(=O)n1` (stereo unspecified), the GI50 was 1.69 µM in [1]; 2.05 µM in experiment [2]; 0.715 µM in experiment [3]; 0.661 µM in [4]; 0.493 µM in experiment [5]; 0.829 µM in experiment [6]. Also, the GI50 in experiment [7] was 0.635 µM; in [8], 0.671 µM; in experiment [10], 0.142 µM. Further, the TGI in [1] is > 100 µM and 429 µM and > 500 µM; in experiment [2] it was > 100 µM and 457 µM and > 500 µM; in experiment [4] it was > 100 µM and 417 µM and > 500 µM; in experiment [7] it was above 500 µM; in experiment [8], above 500 µM; in [9] it was above 500 µM. In experiment [10], this compound registered a TGI above 500 µM.
